Laboratory results taken from patent publication US11324798B2, “Materials and methods for treatment of inflammation” (CYTOGEL PHARMA, LLC, priority 2010, dated 2022).

Tested on: mu opiate receptor
Experiment: Binding to the mu opiate receptor

H-Tyr-Pro-Trp-Phe-NH2 [SEQ ID NO:1]
Potency for the mu opiate receptor: very potent
